Where a name gives a salt, the structure may show the parent alone. Ends that are not written are not given here.
Legend:
[1] = test system: busulfan-modeled mice; conditions: model group, busulfan 30 mg/kg single intraperitoneal injection; compared with the control group
Procedure: The Kunming mice are injected intraperitoneally with busulfan (30 mg/kg). An average weight of the mice is 27 grams (g). Each mouse is injected with 0.8 mg busulfan. A total of 40 mice are modeled.
After one week of modeling the mice, the average weight of the experimental mice is grams (g). […] The control group and the model group are injected with the equivalent amount of physiological saline.
After the mice are anesthetized and sacrificed, the left epididymal tail is immediately removed for semen analysis. The left testis is stored at −80° C., and the parameters such as protein and messenger ribonucleic acid (mRNA) expression are detected. The right testis and right epididymis are fixed with 4% paraformaldehyde for further histological analysis.
(2) Staining with hematoxylin: the soaked sections are taken out and dried, a hematoxylin staining solution is added to cover the tissue and stained for 3 minutes.
(3) Differentiation: a differentiation solution is dropped at the sections, after 5-6 seconds (s), when observing that the color has faded, the section can be rinsed with the ultrapure water.
(4) Bluing: hematoxylin bluing solution is dropped at the section, after 5-6 seconds, when observing the color blue, the sections can be rinsed with the ultrapure water. […]

[2] = test system: men with oligospermia with hypogonadism; conditions: cited from earlier work
[3] = after administration (oral); cited from earlier work
[4] = test system: patients with oligospermia; conditions: GnRH supplementation; cited from earlier work

CS(=O)(=O)OCCCCOS(C)(=O)=O [busulfan]
structure of seminiferous tubules (HE staining of testes) [1]: severely damages

CCN(CC)CCOc1ccc(C(=C(Cl)c2ccccc2)c2ccccc2)cc1 [clomiphene citrate]
bone mineral density of patients ([2]; 12-month treatment): significantly reduce | usefulness in men with oligospermia with hypogonadism ([2]; in vivo): proven to be useful

Nc1nc2ccc(OC(F)(F)F)cc2s1 [riluzole, 2-amino-6-trifluomethoxy-benzothiazole]
time to peak of blood concentration [3]: 60 to 90 min

GnRH: gonadotropin-releasing hormone supplementation (QHWSYGLRPG; ends and bridges not checked; UniProt P01148 24-33, looked up)
patients who succeed in spermatogenesis [4]: 77%

Source: US12691103B2 (Jinan University, priority 2022, dated 2026)
